In EP0321100A2, “Piperazine derivatives, their acid addition salts and a process for the preparation of same” (SPOFA spojené podniky pro zdravotnickou vyrobu, priority 1987, dated 1989):
Where two headings read alike, the source gives them in different places.

Tests used:
in vivo [1] = settings: mouse, po
[2] = target: T1, dopamine D-2 receptors in the rat brain striatum (Rattus norvegicus, UniProt P61169); assay: Inhibition of binding of 3H-spiperone to dopamine D-2 receptors; settings: inhibition of binding of 0.5 nM ³H-spiperone, read-out: medium inhibitory concentration IC₅₀
T1 construct: dopamine D-2 receptors in the rat brain striatum; from tissue; host or cells: rat brain striatum

mice = settings: reference compound, for comparison, literature citation given; cited from earlier work
[3] = tested on: spontaneous locomotor activity in mice; assay: Inhibition of spontaneous locomotor activity in mice, photocell method after Dews; format: in vivo; settings: Mus musculus, oral, read-out: medium inhibitory dose D₅₀
[4] = tested on: apomorphine-induced emesis in dogs; assay: Inhibition of apomorphine-induced emesis in dogs; format: in vivo; settings: 10 mg/kg, interval of 4 hours after administration
re-uptake of serotonin = assay: Inhibition of re-uptake of serotonin in rat brain; format: biochemical
[5] = Anticholinergic activity in vivo
Maccacus rhesus monkeys = settings: rhesus monkey, in vivo, po, 10 mg/kg
in vivo [6] = assay: in vivo; parameters: species or system mice; settings: mouse, po
Experimental: (§1) Discoordinating effect (rota-rod test in mice), medium effective dose ED₅₀ 44.0 mg/kg, is still […] than for thioridazine (Taeschler M., Cerletti A., Schweiz.Med. Wochschr. 88, 1216, 1958); this is advantageous. […] Adrenolytic activity in mice is very low: an oral dose as high as 100 mg/kg prevents adrenaline-induced lethality in 20 % of the animals.

[7] = tested on: re-uptake of noradrenaline; assay: Inhibition of re-uptake of noradrenaline in rat brain; format: biochemical
[8] = tested on: dopamine turnover and metabolism in rat brain striatum; assay: Antidopaminergic activity: effect on dopamine turnover and metabolism (homovanillic acid level) in rat brain; format: in vivo; settings: for minimal effective dose: Rattus norvegicus, po, read-out: threshold dose which significantly increased homovanillic acid level; for increase in the concentration of homovanillic acid (% concentration of the metabolite in comparison with the control taken for 100 %): rat brain striatum, oral 80 mg/kg dose
[9] = tested on: adrenaline-induced lethality; assay: Adrenolytic activity in mice (adrenaline-induced lethality); format: in vivo; settings: oral dose 100 mg/kg
Experimental: as §1

[10] = target: T2, dopamine D-1 receptors in rat striatum (Rattus norvegicus, UniProt P18901); assay: Affinity to dopamine D-1 receptors; format: binding
T2 construct: dopamine D-1 receptors in rat striatum; from tissue; host or cells: rat striatum

[11] = Anticholinergic activity in vitro
[12] = Depot neuroleptic evaluation (method not described); format: in vivo; settings: solution of the base (375 mg/ml) in Miglyol 812
Description: 2-{4-[2-(2-Chloro-10,11-dihydrodibenzo(b,f)thiepin-10-yloxy)ethyl]piperazin 1-yl} ethanol (compound I-A); succinate 3-{4-[2-(2-Chloro-10,11-dihydrodibenzo(b,f)thiepin-10-yloxy)ethyl]piperazin-1-yl} propanol (I-B); bis(hydrogensuccinate) 1-[2-(2-Chloro-10,11-dihydrodibenzo(b,f)thiepin-10-yloxy)ethyl]-4-methylpiperazine (I-C); bis(hydrogensuccinate) 1-[2-(2-Chloro-10,11-dihydrodibenzo(b,f)thiepin-10-yloxy)ethyl]piperazine (I-D); succinate 2-{4-[2-(2-Chloro-10,11-dihydrodibenzo(b,f)thiepin-10-yloxy)ethyl]piperazin-1-yl} ethyl acetate (I-E); bis(hydrogensuccinate) 2-{4-[2-(2-Chloro 10,11-dihydrodibenzo(b,f)thiepin-10-yloxy)ethyl]piperazin-1-yl} ethyl decanoate (I-F); tested as a solution of the base (375 mg/ml) in Miglyol 812 (Trade Mark).

T1 sequence (P61169 whole entry): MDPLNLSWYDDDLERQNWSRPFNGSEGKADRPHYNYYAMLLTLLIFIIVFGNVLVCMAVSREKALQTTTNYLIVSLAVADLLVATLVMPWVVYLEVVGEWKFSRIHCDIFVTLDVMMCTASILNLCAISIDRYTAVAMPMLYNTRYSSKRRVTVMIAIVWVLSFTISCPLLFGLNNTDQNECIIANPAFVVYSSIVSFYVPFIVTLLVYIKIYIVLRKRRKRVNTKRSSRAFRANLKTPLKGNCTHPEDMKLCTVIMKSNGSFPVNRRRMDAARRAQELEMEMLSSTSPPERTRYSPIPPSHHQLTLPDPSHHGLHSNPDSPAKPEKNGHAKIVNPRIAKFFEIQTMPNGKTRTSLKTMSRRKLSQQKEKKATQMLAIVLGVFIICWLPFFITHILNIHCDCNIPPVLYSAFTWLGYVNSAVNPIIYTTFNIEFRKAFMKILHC
T2 sequence (P18901 whole entry): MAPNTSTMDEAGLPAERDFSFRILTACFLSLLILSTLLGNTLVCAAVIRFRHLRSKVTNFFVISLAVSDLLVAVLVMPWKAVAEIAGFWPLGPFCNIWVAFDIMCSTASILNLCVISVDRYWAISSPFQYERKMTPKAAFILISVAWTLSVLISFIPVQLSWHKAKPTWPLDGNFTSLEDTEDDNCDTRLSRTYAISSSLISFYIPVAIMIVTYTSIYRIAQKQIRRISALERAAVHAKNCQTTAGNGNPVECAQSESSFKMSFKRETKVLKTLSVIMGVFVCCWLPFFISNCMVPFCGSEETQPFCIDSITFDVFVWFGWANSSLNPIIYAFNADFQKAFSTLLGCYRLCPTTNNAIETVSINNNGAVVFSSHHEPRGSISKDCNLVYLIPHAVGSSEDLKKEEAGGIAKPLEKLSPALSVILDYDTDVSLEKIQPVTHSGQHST

## Clc1ccc2c(c1)CC(OCCN1CCNCC1)c1ccccc1S2 (centres unmarked) [I-D, 1-[2-(2-Chloro-10,11-dihydrodibenzo(b,f)thiepin-10-yloxy)ethyl]piperazine]
In vivo [1]
  LD50: 509 mg/kg
[2]
  IC50: 1000 nM

## CN1CCN(C2=Nc3cc(Cl)ccc3Nc3ccccc32)CC1 [clozapine, reference compound]
mice
  acute toxicity, LD₅₀: 199 mg/kg
[3]
  ED50: 1.05 mg/kg

## CN1CCN(CCOC2Cc3cc(Cl)ccc3Sc3ccccc32)CC1 (centres unmarked) [I-C, 1-[2-(2-Chloro-10,11-dihydrodibenzo(b,f)thiepin-10-yloxy)ethyl]-4-methylpiperazine]
In vivo [1]
  LD50: 401 mg/kg
[2]
  IC50: 264 nM

## OCCCN1CCN(CCOC2Cc3cc(Cl)ccc3Sc3ccccc32)CC1 (centres unmarked) [I-B, 3-{4-[2-(2-Chloro-10,11-dihydrodibenzo(b,f)thiepin-10-yloxy)ethyl]piperazin-1-yl} propanol]
In vivo [1]
  LD50: 618 mg/kg
[2]
  IC50: 350 nM

## OCCN1CCN(CCOC2Cc3cc(Cl)ccc3Sc3ccccc32)CC1 (centres unmarked) [I-A, 2-{4-[2-(2-Chloro-10,11-dihydrodibenzo(b,f)thiepin-10-yloxy)ethyl]piperazin-1-yl} ethanol]
[4]
  inhibition of apomorphine-induced emesis: inhibitory effect
re-uptake of serotonin
  inhibition of re-uptake of serotonin: weak inhibitor
[5]
  anticholinergic activity: very low
Maccacus rhesus monkeys
  blood pressure: do not affect
  general behaviour of the animals: do not affect
  heart rhythm (pulse rate): do not affect
In vivo [6]
  TD50: 44 mg/kg
In vivo [1]
  LD50: 346 mg/kg
[7]
  inhibition of re-uptake of noradrenaline: weak inhibitor
[8]; corpus striatum
  minimal effective dose: 20 mg/kg
[8]; tuberculum olfactorium
  minimal effective dose: 10 mg/kg
[8]
  increase in the concentration of homovanillic acid (% concentration of the metabolite in comparison with the control taken for 100 %): 504%
[2]
  IC50: 212 nM
[9]
  prevention of adrenaline-induced lethality, share of the animals: 20%
[3]
  ED50: 15.7 mg/kg
[10]
  affinity to dopamine D-1 receptors: slight affinity
[11]
  anticholinergic activity: very low

## CCCCCCCCCC(=O)OCCN1CCN(CCOC2Cc3cc(Cl)ccc3Sc3ccccc32)CC1 (racemic) [I-F, 2-{4-[2-(2 Chloro-10,11-dihydrodibenzo(b,f)thiepin-10-yloxy)ethyl]piperazin-1-yl} ethyl decanoate]
[12]
  duration of neuroleptic action: substantially prolonged action

## CC(=O)OCCN1CCN(CCOC2Cc3cc(Cl)ccc3Sc3ccccc32)CC1 (racemic) [I-E, 2-{4-[2-(2-Chloro-10,11-dihydrodibenzo(b,f)thiepin-10-yloxy)ethyl]piperazin-1-yl} ethyl acetate]
In vivo [1]
  LD50: 691 mg/kg
[8]
  increase in the concentration of homovanillic acid (% concentration of the metabolite in comparison with the control taken for 100 %): 244%
[2]
  IC50: 219 nM
